Test results from US7897619B2, “Heterocyclic modulators of PKB” (Amgen Inc., priority 2007, dated 2011).

Target: PKBα (Homo sapiens, UniProt P31749)
Assay: PKB kinase assay (P33-labeled ATP, synthetic peptide substrate, filter plate)
Format: biochemical
Details: PKBα enzyme (full length or kinase domain with pleckstrin domain deleted)
From the text: The kinase assay for evaluating PKB activity comprises active PKB enzymes, a PKB specific substrate, and P^33-labeled ATP. Two forms of PKBα enzymes were used, the full length PKBα and a kinase domain of PKBα with pleckstrin domain (amino acids 1-117) deleted. Both PKB enzymes were obtained from Upstate cell signaling solutions (Cat.# 14-276 and 14-341). The PKB substrate used is a synthetic peptide (ARKRERTYSFGHHA (SEQ ID NO: 1)) as described in Obata et al., J. Biol. Chem. 275 (46), 36108-36115 (2000). The phosphorylated substrate was captured by a phosphocellulose membrane filter plate (MILLIPORE) and measured by a Wallac Microbeta liquid scintillation counter (Perkin Elmer). Table 1 provides the IC50 values obtained for each of the examples with respect to PKBα.

Chain of PKBα (P31749 118-480 limits assumed): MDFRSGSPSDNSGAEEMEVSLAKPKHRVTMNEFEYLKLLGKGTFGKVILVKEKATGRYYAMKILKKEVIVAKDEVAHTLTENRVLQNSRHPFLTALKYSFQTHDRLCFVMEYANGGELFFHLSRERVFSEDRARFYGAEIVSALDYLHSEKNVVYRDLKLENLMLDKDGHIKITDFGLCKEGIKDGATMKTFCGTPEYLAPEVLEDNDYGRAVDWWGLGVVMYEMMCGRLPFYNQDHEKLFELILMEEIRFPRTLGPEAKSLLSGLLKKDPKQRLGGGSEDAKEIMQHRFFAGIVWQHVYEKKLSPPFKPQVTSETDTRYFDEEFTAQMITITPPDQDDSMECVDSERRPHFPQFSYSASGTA

First: N[C@H](CNc1nnc(-c2ccc3cnccc3c2)o1)Cc1ccc(C(F)(F)F)cc1 [Example 1, N-((S)-2-amino-3-(4-(trifluoromethyl)phenyl)propyl)-5-(isoquinolin-6-yl)-1,3,4-oxadiazol-2-amine]
Second: N[C@H](CNc1cc(-c2ccc3cnccc3c2)no1)Cc1ccc(C(F)(F)F)cc1 [Example 14, N-((S)-2-Amino-3-(4-(trifluoromethyl)phenyl)propyl)-3-(isoquinolin-6-yl)isoxazol-5-amine]
The IC50 of the first is higher: 0.05 to 1 µM for the first, under 0.05 µM for the second. The second is the more potent here.

First: Cc1n[nH]c2ccc(-c3nnc(NC[C@@H](N)Cc4cccc(C(F)(F)F)c4)o3)cc12 [Example 2, N-((S)-2-amino-3-(3-(trifluoromethyl)phenyl)propyl)-5-(3-methyl-1H-indazol-5-yl)-1,3,4-oxadiazol-2-amine]
Second: Cc1n[nH]c2ccc(-c3cnc(NC[C@@H](N)Cc4ccc(C(F)(F)F)cc4)o3)cc12 [Example 9, N-((S)-2-Amino-3-(4-(trifluoromethyl)phenyl)propyl)-5-(3-methyl-1H-indazol-5-yl)oxazol-2-amine]
The IC50 of the first is higher: 1 to 10 µM for the first, 0.05 to 1 µM for the second.

`N[C@H](CCc1nc(-c2ccc3cnccc3c2)no1)Cc1ccc(C(F)(F)F)cc1` [Example 3, (2R)-4-(3-(Isoquinolin-6-yl)-1,2,4-oxadiazol-5-yl)-1-(4-(trifluoromethyl)phenyl)butan-2-amine] and `N[C@@H](Cc1ccc(C(F)(F)F)cc1)Cc1nc(-c2ccc3cnccc3c2)no1` [Example 4, (2S)-1-(3-(Isoquinolin-6-yl)-1,2,4-oxadiazol-5-yl)-3-(4-(trifluoromethyl)phenyl)propan-2-amine] fall in the same range of IC50: 1 to 10 µM for the first, 1 to 10 µM for the second.

First: N[C@@H](Cc1ccc(C(F)(F)F)cc1)c1nc(-c2ccc3cnccc3c2)no1 [Example 5, (1S)-1-(3-(Isoquinolin-6-yl)-1,2,4-oxadiazol-5-yl)-2-(4-(trifluoromethyl)phenyl)ethanamine]
Second: N[C@H](CNc1cc(-c2ccc3cnccc3c2)on1)Cc1ccc(C(F)(F)F)cc1 [Example 20, N-((S)-2-Amino-3-(4-(trifluoromethyl)phenyl)propyl)-5-(isoquinolin-6-yl)isoxazol-3-amine]
The IC50 of the first is higher: 1 to 10 µM for the first, 0.05 to 1 µM for the second. The second is the more potent here.

`COc1ccc(CNc2ncc(-c3ccc4cnccc4c3)o2)cc1` [Example 6, N-(4-Methoxybenzyl)-5-(isoquinolin-6-yl)oxazol-2-amine] and `COc1ccc(CNc2ncc(-c3ccncc3)o2)cc1` [Example 8, N-(4-Methoxybenzyl)-5-(pyridin-4-yl)oxazol-2-amine] fall in the same range of IC50: 1 to 10 µM for the first, 1 to 10 µM for the second.

`COc1ccc(CNc2ncc(-c3ccccc3)o2)cc1` [Example 7, N-(4-Methoxybenzyl)-5-phenyloxazol-2-amine] and `Cc1n[nH]c2ccc(-c3cnc(NCc4ccccc4)o3)cc12` [Example 10, N-Benzyl-5-(3-methyl-1H-indazol-5-yl)oxazol-2-amine] fall in the same range of IC50: 1 to 10 µM for the first, 1 to 10 µM for the second.

`N[C@H](CNc1cc(-c2ccc3cnccc3c2)no1)Cc1ccc(Cl)cc1` [Example 11, N-((S)-2-Amino-3-(4-chlorophenyl)propyl)-3-(isoquinolin-6-yl)isoxazol-5-amine] and `N[C@H](CNc1cc(-c2ccc3cnccc3c2)no1)Cc1ccc(Br)cc1` [Example 12, N-((S)-2-Amino-3-(4-bromophenyl)propyl)-3-(isoquinolin-6-yl)isoxazol-5-amine] cannot be ordered by IC50: under 0.05 µM for the first, under 0.05 µM for the second.

`N[C@H](CNc1cc(-c2ccc3cnccc3c2)no1)Cc1cccc(C(F)(F)F)c1` [Example 13, N-((S)-2-Amino-3-(3-(trifluoromethyl)phenyl)propyl)-3-(isoquinolin-6-yl)isoxazol-5-amine] and `N[C@H](CNc1cc(-c2ccc3cnccc3c2)no1)Cc1cccc(Cl)c1` [Example 16, N-((S)-2-Amino-3-(3-chlorophenyl)propyl)-3-(isoquinolin-6-yl)isoxazol-5-amine] cannot be ordered by IC50: under 0.05 µM for the first, under 0.05 µM for the second.

`N[C@H](CNc1cc(-c2ccc3cnccc3c2)no1)Cc1ccccc1` [Example 15, N-((S)-2-Amino-3-phenylpropyl)-3-(isoquinolin-6-yl)isoxazol-5-amine] and `N[C@H](CNc1cc(-c2ccc3cnccc3c2)no1)Cc1ccccc1Cl` [Example 18, N-((S)-2-Amino-3-(2-chlorophenyl)propyl)-3-(isoquinolin-6-yl)isoxazol-5-amine] fall in the same range of IC50: 0.05 to 1 µM for the first, 0.05 to 1 µM for the second.

`Cc1c(-c2ccc3cnccc3c2)noc1NC[C@@H](N)Cc1ccccc1` [Example 17, N-((S)-2-Amino-3-phenylpropyl)-3-(isoquinolin-6-yl)-4-methylisoxazol-5-amine] and `N[C@H](CNc1onc(-c2ccc3cnccc3c2)c1Cc1ccccc1)Cc1ccccc1` [Example 31, N-((S)-2-amino-3-phenylpropyl)-4-benzyl-3-(isoquinolin-6-yl)isoxazol-5-amine] fall in the same range of IC50: 1 to 10 µM for the first, 1 to 10 µM for the second.

`N[C@H](CNc1cc(-c2ccc3cnccc3c2)no1)Cc1ccc2ccccc2c1` [Example 19, N-((S)-2-Amino-3-(naphthalen-2-yl)propyl)-3-(isoquinolin-6-yl)isoxazol-5-amine] and `N[C@H](CNc1cc(-c2ccc3cnccc3c2)no1)Cc1c[nH]c2ccccc12` [Example 32, N-((S)-2-amino-3-(1H-indol-3-yl)propyl)-3-(isoquinolin-6-yl)isoxazol-5-amine] fall in the same range of IC50: 0.05 to 1 µM for the first, 0.05 to 1 µM for the second.

`N[C@H](CNc1cc(-c2ccc3cnccc3c2)on1)Cc1cccc(Cl)c1` [Example 21, N-((S)-2-Amino-3-(3-chlorophenyl)propyl)-5-(isoquinolin-6-yl)isoxazol-3-amine] and `N[C@H](CNc1cc(-c2ccc3cnccc3c2)on1)Cc1ccc(Cl)cc1` [Example 22, N-((S)-2-Amino-3-(4-chlorophenyl)propyl)-5-(isoquinolin-6-yl)isoxazol-3-amine] fall in the same range of IC50: 0.05 to 1 µM for the first, 0.05 to 1 µM for the second.

Compared with `N[C@H](CCc1cc(-c2ccc3cnccc3c2)no1)Cc1ccccc1` [Example 23, (2R)-4-(3-(isoquinolin-6-yl)isoxazol-5-yl)-1-phenylbutan-2-amine], `N[C@H](CCc1cc(-c2ccc3cnccc3c2)no1)Cc1cccc(Cl)c1` [Example 26, (2R)-1-(3-chlorophenyl)-4-(3-(isoquinolin-6-yl)isoxazol-5-yl)butan-2-amine] is lower in IC50: 1 to 10 µM for the first, 0.05 to 1 µM for the second.

First: N[C@H](CCc1cc(-c2ccc3cnccc3c2)no1)Cc1ccc(C(F)(F)F)cc1 [Example 24, (2R)-4-(3-(Isoquinolin-6-yl)isoxazol-5-yl)-1-(4-(trifluoromethyl)phenyl)butan-2-amine]
Second: N[C@@H](CCc1cc(-c2ccc3cnccc3c2)no1)Cc1ccc(C(F)(F)F)cc1 [Example 28, (2S)-4-(3-(Isoquinolin-6-yl)isoxazol-5-yl)-1-(4-(trifluoromethyl)phenyl)butan-2-amine]
The IC50 of the first is lower: under 0.05 µM for the first, 0.05 to 1 µM for the second. The first is the more potent here.

`N[C@H](CCc1cc(-c2ccc3cnccc3c2)no1)Cc1ccc(Cl)cc1` [Example 25, (2R)-1-(4-Chlorophenyl)-4-(3-(isoquinolin-6-yl)isoxazol-5-yl)butan-2-amine] and `N[C@H](CCc1cc(-c2ccc3cnccc3c2)no1)Cc1ccc(Cl)cc1Cl` [Example 30, (2R)-1-(2,4-Dichlorophenyl)-4-(3-(isoquinolin-6-yl)isoxazol-5-yl)butan-2-amine] fall in the same range of IC50: 0.05 to 1 µM for the first, 0.05 to 1 µM for the second.

First: N[C@H](CCc1cc(-c2ccc3cnccc3c2)no1)Cc1ccccc1Cl [Example 27, (2R)-1-(2-chlorophenyl)-4-(3-(isoquinolin-6-yl)isoxazol-5-yl)butan-2-amine]
Second: N[C@H](CCc1cc(-c2ccc3cnccc3c2)no1)Cc1cccc(C(F)(F)F)c1 [Example 29, (2R)-4-(3-(Isoquinolin-6-yl)isoxazol-5-yl)-1-(3-(trifluoromethyl)phenyl)butan-2-amine]
The IC50 of the first is higher: 1 to 10 µM for the first, 0.05 to 1 µM for the second.

Compared with `N[C@H](CNc1onc(-c2ccc3cnccc3c2)c1Cc1ccccc1)Cc1c[nH]c2ccccc12` [Example 33, N-((S)-2-Amino-3-(1H-indol-3-yl)propyl)-4-benzyl-3-(isoquinolin-6-yl)isoxazol-5-amine], `NCCc1c(-c2ccc3cnccc3c2)noc1NC[C@@H](N)Cc1c[nH]c2ccccc12` [Example 35, N-((S)-2-Amino-3-(1H-indol-3-yl)propyl)-4-(2-aminoethyl)-3-(isoquinolin-6-yl)isoxazol-5-amine] is higher in IC50: 0.05 to 1 µM for the first, 1 to 10 µM for the second. The first is the more potent here.

`CC(C)Cc1c(-c2ccc3cnccc3c2)noc1NC[C@@H](N)Cc1c[nH]c2ccccc12` [Example 34, N-((S)-2-Amino-3-(1H-indol-3-yl)propyl)-4-isobutyl-3-(isoquinolin-6-yl)isoxazol-5-amine] and `NCCNc1onc(-c2ccc3cnccc3c2)c1Cc1ccccc1` [Example 36, N-(2-Aminoethyl)-4-benzyl-3-(isoquinolin-6-yl)isoxazol-5-amine] fall in the same range of IC50: 1 to 10 µM for the first, 1 to 10 µM for the second.

`N[C@H](CCn1cc(-c2ccc3[nH]ncc3c2)nn1)Cc1ccc(C(F)(F)F)cc1` [Example 37, (2S)-4-(4-(1H-Indazol-5-yl)-1H-1,2,3-triazol-1-yl)-1-(4-(trifluoromethyl)phenyl)butan-2-amine] and `Cc1n[nH]c2ccc(-c3cn(CC[C@@H](N)Cc4ccc(C(F)(F)F)cc4)nn3)cc12` [Example 38, (2S)-4-(4-(3-Methyl-1H-indazol-5-yl)-1H-1,2,3-triazol-1-yl)-1-(4-(trifluoromethyl)phenyl)butan-2-amine] fall in the same range of IC50: 0.05 to 1 µM for the first, 0.05 to 1 µM for the second.

First: N[C@H](CCn1cc(-c2ccc3[nH]ncc3c2)nn1)Cc1ccccc1 [Example 39, (2S)-4-(4-(1H-Indazol-5-yl)-1H-1,2,3-triazol-1-yl)-1-phenylbutan-2-amine]
Second: Cc1n[nH]c2ccc(-c3cn(CC[C@@H](N)Cc4ccccc4)nn3)cc12 [Example 40, (2S)-4-(4-(3-Methyl-1H-indazol-5-yl)-1H-1,2,3-triazol-1-yl)-1-phenylbutan-2-amine]
The IC50 of the first is lower: 0.05 to 1 µM for the first, 1 to 10 µM for the second. The first is the more potent here.
